Reference: patent US20240336641A1, “3-PYRROLIDINE-INDOLE DERIVATIVES AS SEROTONERGIC PSYCHEDELIC AGENTS FOR THE TREATMENT OF CNS DISORDERS” (Mindset Pharma Inc., priority 2020, published 2024)

What was measured:
[1] = In vivo pharmacokinetics in mice (IV and PO); conditions: male C57BL/6 mice
Procedure: Male C57BL/6 mice (25-30 g) from Charles River Labs were acclimatized for a minimum of 5 days prior to dosing. Body weights will be recorded on the day of dosing.
Animals dosed p.o. were deprived of food overnight and fed ˜2 h following dosing.
(§1) Formulations were administered intravenously (i.v.) via the tail vein or orally (p.o.) by gavage with disposable feeding needles.
(§2) Serial blood samples were collected via tail snip. Terminal blood samples will be collected under isoflurane anesthesia by cardiac puncture.
(§3) All blood samples were transferred into K2EDTA tubes on wet ice and centrifuged within 5 min (3200×g for 5 min at 4° C.) to obtain plasma. Plasma will be stored at −80° C. until analysis.
(§4) • i. Analysis software: Phoenix® WinNonlin® 8.2 (Pharsight, Certara, Mountainview, CA) • ii. Analysis methods: non-compartmental analysis, linear up/log down trapezoidal rule • iii. PK parameters: C0, t1/2, AUC0-last. AUC0-∞, CL, Vss, MRT, tmax(po), Cmax(po), F, as appropriate

[2] = In vivo pharmacokinetics in rats (IV and PO); conditions: male SD rats
Procedure: as §1, §2, §3, §4

[3] = tested on: head-twitch response (HTR) in male C57BL6 mice; assay: Mouse head twitch response (HTR); format: in vivo; conditions: I-2 10 mg/kg SC, M100907 0.5 mg/kg IP pretreatment
Procedure: FIG. 1. is a graph showing the effect of various doses of exemplary compound of Formula I, 1-2, on head-twitch response (HTR) in male C57BL6 mice. The mice were treated with compound I-2 (0.03-10 mg/kg, SC) by SC route (N=6 mice/dose), and the total number of head twitches were recorded over a 1 h period. Data is expressed as mean±SEM. The induction of head twitches elicited by 5-HT2A receptor agonists is believed to represent a behavioural proxy of their psychedelic effects.
Male C57BL6 mice were pretreated with the selective 5-HT2A receptor antagonist M100907 (0.5 mg/kg IP; also known as volinanserin) prior to the administration of exemplary compound of Formula I, 1-2 (10 mg/kg SC). […] Data is expressed as mean±SEM.
Male, C57BL/6J mice (body weight range 20-30 g) were dosed with the appropriate dose of test article, and following a 1-minute pre-treatment time, placed in individual observation chambers. Animals were visually assessed for the incidence head twitches continuously over a 1 hr period. […] Each head twitch was individually counted by a trained observer, and the data expressed as the mean±SEM of 6-10 mice per group. […]
The effect of various doses of exemplary compound of Formula I, 1-2, on head-twitch response (HTR) in male C57BL6 mice were measured. […] Data is expressed as mean±SEM. […]

Row | SMILES | biotransformation after administration ([1]; IV (footnote Table 5)) | biotransformation after administration ([1]; PO table (footnote Table 6 prints IV)) | biotransformation after administration ([2]; IV (footnote Table 7)) | biotransformation after administration ([2]; oral (footnote Table 8)) | effect on head-twitch response (HTR) after pretreatment with selective 5-HT2A antagonist M100907 [3]
1 | [2H]C([2H])(c1c[nH]c2cccc(OC)c12)[C@H]1CCCN1C([2H])([2H])[2H] [Compound I-39, (R)-4-methoxy-3-((1-(methyl-d3)pyrrolidin-2-yl)methyl-d2)-1H-indole] | ^(a)I-39 is hydrolysed to I-44 after IV administration | ^(a)1-39 is hydrolysed to I-44 after IV administration | ^(a)I-39 is hydrolysed to I-44 after IV administration | ^(a)I-39 is hydrolysed to I-44 after oral administration | –
2 | [2H]C([2H])([2H])N1CCC[C@@H]1Cc1c[nH]c2cccc(O)c12 [Compound I-2, (R)-3-((1-(methyl-d3)pyrrolidin-2-yl)methyl)-1H-indol-4-ol] | – | – | – | – | completely blocked
